{"source": "patent US20230348418A1", "about": "“ISOINDOLINONE COMPOUNDS” (Monte Rosa Therapeutics, Inc., priority 2021, published 2023)", "target": "T1, Full length wild-type cereblon CRBN (Homo sapiens, UniProt Q96SW2)", "T1 construct": "Full length wild-type cereblon CRBN (80.0 nM, 10 μL) was incubated in assay buffer", "T1 sequence (Q96SW2 whole entry)": "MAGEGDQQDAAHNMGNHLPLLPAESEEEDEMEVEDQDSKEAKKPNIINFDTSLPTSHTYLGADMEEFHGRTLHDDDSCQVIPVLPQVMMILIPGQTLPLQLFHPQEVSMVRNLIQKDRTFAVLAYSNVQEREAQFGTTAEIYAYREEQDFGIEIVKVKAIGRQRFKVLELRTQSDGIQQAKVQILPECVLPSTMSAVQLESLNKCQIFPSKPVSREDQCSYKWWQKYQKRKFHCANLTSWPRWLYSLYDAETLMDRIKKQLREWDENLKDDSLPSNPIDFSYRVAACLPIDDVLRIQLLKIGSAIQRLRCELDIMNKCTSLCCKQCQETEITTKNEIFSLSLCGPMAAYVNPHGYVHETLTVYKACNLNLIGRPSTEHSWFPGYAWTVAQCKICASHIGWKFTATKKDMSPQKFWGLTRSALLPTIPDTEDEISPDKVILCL", "test": "Fluorescence polarization (FP) assay, cereblon binding", "outline": "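Full-length wild-type human CRBN (80.0 nM) was preincubated with compound for 30 min at room temperature in 20 mM HEPES pH 8.0, 150 NaCl, 0.5 mM TCEP and 0.05% Tween 20. A Cy5-type thalidomide-linked fluorescent probe was then added. The FP signal was normalized to the DMSO control to derive IC50.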", "note": "Read-outs that look alike come from different tables or passages of the source.", "data": [{"smiles": "Cc1ccc(NC(=O)OCc2ccc3c(c2)C(=O)N(C2CCC(=O)NC2=O)C3)cc1Cl", "note": "(centres unmarked) [Compound 10]", "values": [{"measurement": "IC50", "setting": "bounds stated in the text lists b2059-b2061, read-out: IC50 value", "result": "< 1.7", "unit": "µM"}, {"measurement": "IC50", "setting": "cereblon binding, class code, read-out: rFP IC50", "result": "1.1 to 1.7", "unit": "µM"}]}]}
